# According to patent US6372209B1, “Vaginal lactobacillus medicant” (Gyne Logix, Inc., priority 1997, dated 2002):
# Test system: vaginal epithelial cells (VECs)
# Assay: In vitro adherence to vaginal epithelial cells (frozen VECs, McIlvaine's buffer pH 4.5, Gram stain count)
# Assay type: cell-based, human
# Settings: for average adherence value: 8 VEC donors
# Description: (1.2) Adherence to vaginal epithelial cells (VECs): Immediately after sampling, vaginal epithelial cells were transferred to MEM tissue culture medium, pH 7.2, washed 3 times in a syringe and passed through a 8μ filter (Millipore) which retains vaginal cells but passes bacteria. A total of 10^5 washed vaginal cells were added to a suspension of 10^9 Lactobacilli/ml (enumerated with a counting chamber) and incubated for 2.5 hours at 37° C. After washing and filtering to remove unattached Lactobacilli, the vaginal cells were stained using Gram stain. The number of Lactobacilli that adhered to the epithelial cells was counted and recorded using a light microscope equipped with a camera. Both the mean number of Lactobacilli cells adhered per VEC (average adherence value) and the percent VEC cohesion value, as described above, were calculated. The percent VEC cohesion value, defined as the percentage of VECs to which at least one Lactobacillus cell is adhered of the total number of VECs in an identified group, was used to determine whether a particular strain would be selected as having a desirable adherence characteristic. Since ongoing adherence studies required a constant supply of vaginal epithelial cells, the vaginal epithelial cells were pre-washed and stored at −70° C. until time of use.
# Table 1 and Table 2 show the in vitro adherence studies using frozen VECs from donors representing the most prevalent ABO blood types. […] Strain CTV-05 (Lot LB-022) was preserved in suppository format as described in detail in Example 3. Suppositories were stored at both room (RT) and refrigerator (Ref.) temperatures for 5.5 months prior to testing. It is important to note that the cells of strain CTV-05 used in these studies were not in an actively growing metabolic state. Rather, a suppository containing CTV-05 was placed directly into McIlvaine's buffer (pH 4.5) without pregrowing the microbial cells to an active state. The cells were then directly added to VECs. Results are shown as (1) the logarithmic mean adherence of CTV-05 per 50 VECs (X ±1 standard deviation), (2) as the actual range of adhered CTV-05 per VEC in a total count of 50 VECs, and (3) as the percent VEC cohesion value (% VEC ADH). The description of terms in Table 1 is as follows: ^1X±STD=logarithmic mean adherence of LAB per 50 VEC, +1 standard deviation; ^2 Range=actual range of adhered LAB per VEC in a total count of 50 VECs; ^3% VEC ADH=percent of 50 VECs showing adherence of LAB strain CTV-05, Lot LB-022, stored for 5.5 months at refrigerated (Ref.) and/or room temperature (RT); and *Nursing Mother.
# The buffer was then added directly to previously frozen VECs from human donors. Actively growing CTV-05 was also added to previously frozen VECs.
# [1] = Active LAB, donor A+, cycle day 3, Gram stain score 4
# [2] = Active LAB, donor A+, cycle day 17, Gram stain score 9
# [3] = Active LAB, donor A+, cycle day 37, Gram stain score 8
# [4] = Active LAB, donor AB+, cycle day 24, Gram stain score 4
# [5] = Active LAB, donor A−, cycle day 8 mos., Gram stain score 4
# [6] = Active LAB, donor B+, cycle day 13, Gram stain score 9
# [7] = Active LAB, donor O+, cycle day 7, Gram stain score 2
# [8] = Active LAB, donor O+, cycle day 7, Gram stain score 4
# [9] = Active LAB, donor O+, cycle day 15, Gram stain score 2
# [10] = Active LAB, donor O+, cycle day 20, Gram stain score 6
# [11] = Active LAB, frozen VECs, 10 donors
# [12] = Inactive LAB, Agar, donor A+, cycle day 3, Gram stain score 4
# [13] = Inactive LAB, Agar, donor A+, cycle day 37, Gram stain score 8
# [14] = Inactive LAB, Agar, donor AB+, cycle day 24, Gram stain score 4
# [15] = Inactive LAB, Agar, donor B+, cycle day 13, Gram stain score 9
# [16] = Inactive LAB, Agar, donor O+, cycle day 7, Gram stain score 2
# [17] = Inactive LAB, Agar, donor O+, cycle day 15, Gram stain score 2
# [18] = Inactive LAB, Agar, donor O+, cycle day 20, Gram stain score 6
# [19] = Inactive LAB, Agar, frozen VECs
# [20] = Inactive LAB, Broth, donor A+, cycle day 3, Gram stain score 4
# [21] = Inactive LAB, Broth, donor A+, cycle day 17, Gram stain score 9
# [22] = Inactive LAB, Broth, donor A+, cycle day 37, Gram stain score 8
# [23] = Inactive LAB, Broth, donor AB+, cycle day 24, Gram stain score 4
# [24] = Inactive LAB, Broth, donor A−, cycle day 8 mos., Gram stain score 4
# [25] = Inactive LAB, Broth, donor B+, cycle day 13, Gram stain score 9
# [26] = Inactive LAB, Broth, donor O+, cycle day 7, Gram stain score 2
# [27] = Inactive LAB, Broth, donor O+, cycle day 7, Gram stain score 4
# [28] = Inactive LAB, Broth, donor O+, cycle day 15, Gram stain score 2
# [29] = Inactive LAB, Broth, donor O+, cycle day 20, Gram stain score 6
# [30] = Inactive LAB, Broth, frozen VECs, 10 donors
substance,measurement,setting,value
Lactobacillus crispatus CTV-05,% VEC ADH,[1],94%
same,X ± 1 STD (logarithmic mean adherence of LAB per 50 VEC),[1],17.7 ± 3.2
same,% VEC ADH,[2],66%
same,X ± 1 STD (logarithmic mean adherence of LAB per 50 VEC),[2],13.0 ± 5.0
same,% VEC ADH,[3],94%
same,Range (adhered LAB per VEC),[3],0-133 LAB per VEC
same,X ± 1 STD (logarithmic mean adherence of LAB per 50 VEC),[3],8.5 ± 3.3
same,% VEC ADH,[4],70%
same,Range (adhered LAB per VEC),[4],0-109 LAB per VEC
same,X ± 1 STD (logarithmic mean adherence of LAB per 50 VEC),[4],5.1 ± 3.4
same,% VEC ADH,[5],96%
same,X ± 1 STD (logarithmic mean adherence of LAB per 50 VEC),[5],52.1 ± 3.6
same,% VEC ADH,[6],68%
same,Range (adhered LAB per VEC),[6],0-61 LAB per VEC
same,X ± 1 STD (logarithmic mean adherence of LAB per 50 VEC),[6],5.7 ± 3.3
same,% VEC ADH,[7],94%
same,X ± 1 STD (logarithmic mean adherence of LAB per 50 VEC),[7],51.9 ± 3.0
same,% VEC ADH,[8],92%
same,X ± 1 STD (logarithmic mean adherence of LAB per 50 VEC),[8],36.3 ± 2.7
same,% VEC ADH,[9],96%
same,Range (adhered LAB per VEC),[9],0-216 LAB per VEC
same,X ± 1 STD (logarithmic mean adherence of LAB per 50 VEC),[9],16.4 ± 4.0
same,% VEC ADH,[10],100%
same,Range (adhered LAB per VEC),[10],1-122 LAB per VEC
same,X ± 1 STD (logarithmic mean adherence of LAB per 50 VEC),[10],14.1 ± 2.3
same,Overall Averages # LAB/VEC,[11],22.1 LAB/VEC
same,Overall Averages % Adherence,[11],77.6%
same,Range (adhered LAB per VEC),[12],14-200 LAB per VEC
same,X ± 1 STD (logarithmic mean adherence of LAB per 50 VEC),[12],96.1 ± 2.3
same,% VEC ADH,[13],100%
same,X ± 1 STD (logarithmic mean adherence of LAB per 50 VEC),[13],58.9 ± 2.1
same,% VEC ADH,[14],100%
same,X ± 1 STD (logarithmic mean adherence of LAB per 50 VEC),[14],47.3 ± 2.5
same,% VEC ADH,[15],100%
same,X ± 1 STD (logarithmic mean adherence of LAB per 50 VEC),[15],19.4 ± 3.9
same,% VEC ADH,[16],100%
same,X ± 1 STD (logarithmic mean adherence of LAB per 50 VEC),[16],21.4 ± 2.5
same,% VEC ADH,[17],38%
same,Range (adhered LAB per VEC),[17],0-11 LAB per VEC
same,X ± 1 STD (logarithmic mean adherence of LAB per 50 VEC),[17],1.9 ± 2.1
same,% VEC ADH,[18],200%
same,X ± 1 STD (logarithmic mean adherence of LAB per 50 VEC),[18],60.9 ± 2.1
same,Overall Averages # LAB/VEC,[19],43.7 LAB/VEC
same,Overall Averages % Adherence,[19],91.1%
same,% VEC ADH,[20],46%
same,X ± 1 STD (logarithmic mean adherence of LAB per 50 VEC),[20],6.4 ± 3.9
same,% VEC ADH,[21],38%
same,X ± 1 STD (logarithmic mean adherence of LAB per 50 VEC),[21],3.1 ± 3.2
same,% VEC ADH,[22],98%
same,X ± 1 STD (logarithmic mean adherence of LAB per 50 VEC),[22],10.9 ± 3.6
same,% VEC ADH,[23],72%
same,Range (adhered LAB per VEC),[23],0-178 LAB per VEC
same,X ± 1 STD (logarithmic mean adherence of LAB per 50 VEC),[23],7.1 ± 3.5
same,% VEC ADH,[24],99%
same,Range (adhered LAB per VEC),[24],0-56 LAB per VEC
same,X ± 1 STD (logarithmic mean adherence of LAB per 50 VEC),[24],6.5 ± 3.0
same,% VEC ADH,[25],60%
same,X ± 1 STD (logarithmic mean adherence of LAB per 50 VEC),[25],7.3 ± 4.7
same,% VEC ADH,[26],100%
same,Range (adhered LAB per VEC),[26],1-96 LAB per VEC
same,X ± 1 STD (logarithmic mean adherence of LAB per 50 VEC),[26],5.7 ± 2.8
same,% VEC ADH,[27],92%
same,Range (adhered LAB per VEC),[27],0-96 LAB per VEC
same,X ± 1 STD (logarithmic mean adherence of LAB per 50 VEC),[27],7.8 ± 3.1
same,% VEC ADH,[28],80%
same,X ± 1 STD (logarithmic mean adherence of LAB per 50 VEC),[28],6.9 ± 3.3
same,% VEC ADH,[29],100%
same,Range (adhered LAB per VEC),[29],1-66 LAB per VEC
same,X ± 1 STD (logarithmic mean adherence of LAB per 50 VEC),[29],15.9 ± 3.1
same,Overall Averages # LAB/VEC,[30],7.76 LAB/VEC
same,Overall Averages % Adherence,[30],78.4%
same,average adherence value,cells stored at refrigerated temperatures,24.3 cells/VEC
same,adherence of inactive (preserved state) cells compared with metabolically active cells,"frozen VECs, McIlvaines Buffer pH 4.5",equally well or better
same,average adherence value,room temperature stored cells,21.9 cells/VEC
same,"percent VEC cohesion value, average",stored at refrigerated temperature,97.75%
same,"percent VEC cohesion value, average",stored at room temperature,97%
